# The supplement of paper PMC10290057
# Counter-ions that a name gives are not always drawn.
# System: HCT116
# Assay: efficacy (fitted maximal change in viability relative to DMSO control); higher = less cytotoxic (negative = loss of viability)
# Details: 48 h
# 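Further: Luminescence-based viability readout, five doses per compound, normalized against on-plate DMSO and empty-well controls, followed by dose-response curve fitting for every drug.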
row,SMILES,efficacy
1,CC(C)(C)NCC(O)c1ccc(O)c(CO)c1 (stereo not given) [Salbutamol sulfate],-14.1%
2,Cc1cc(SCc2sc(-c3ccc(C(F)(F)F)c(F)c3)nc2C)ccc1OCC(=O)O [GW-0742],-21%
3,OC[C@H]1OC(O)C[C@@H](O)[C@@H]1O (stereo not given in full) [2-Deoxyglucose],-11.9%
4,OCCOc1ccc(/C(=C(/CCCl)c2ccccc2)c2ccccc2)cc1 [Ospemifene],-49.5%
5,CC(=O)N1CCC[C@H]1C(=O)N[C@@H](Cc1c[nH]cn1)C(=O)N[C@@H](CO)C(=O)N[C@@H](CS)C(=O)N[C@@H](CC(N)=O)C(N)=O [ATN-161],-6.15%
6,O=C([C@@H](Cc1cccc(C(F)(F)F)c1)N[S+](=O)([O-])c1cc(F)c2c(c1)CCNC2)N1CCCC1 [(R)-PFI-2],-23.9%
7,CCO[C@@H]1OC(=O)C[C@@H]1NC(=O)[C@@H]1CCCN2C(=O)CC[C@H](NC(=O)c3nccc4ccccc34)C(=O)N12 [Pralnacasan],-15.4%
8,c1coc(CNc2ncnc3nc[nH]c23)c1 [Kinetin],-22.2%
9,CN(C)c1nc(N(C)C)nc(N(C)C)n1 [Altretamine],-12.2%
10,N#Cc1ccc(C2CCCc3cncn32)cc1 (stereo not given) [Fadrozole],-10.8%
11,Cc1c(F)ccc(C(=O)Nc2cc([N+](=O)[O-])ccc2N2CCN(C)CC2)c1Cl [WDR5-C47],-7.44%
12,Cl.NC(CO)C(=O)NNCc1ccc(O)c(O)c1O (stereo not given) [Benserazide],-65.3%
13,CC(=O)OCCN1C(=O)c2c(C)nc3ccc([S+](=O)([O-])N4CCOCC4)cc3c2C1=O [Ivachtin],-16.7%
14,CC1=NN(c2ccc(C)c(C)c2)C(=O)/C1=N/Nc1cccc(-c2cccc(C(=O)O)c2)c1O [Eltrombopag olamine],-17.2%
15,C[C@@H]1CN(Cc2ccc(F)cc2)[C@@H](C)CN1C(=O)c1cc2c(C(=O)C(=O)N(C)C)cn(C)c2cc1Cl [Talmapimod],-32.8%
16,CN1C(=O)/C=C(/NCCN(CCO)CCCC2=CC=C(C=C2)[N+]([O-])=O)N(C)C1=O [Nifekalant],-10%
17,O=C(O)CC(C(=O)O)N1C(=O)/C(=C2/C(=O)Nc3ccc(Br)cc32)SC1=S (stereo not given) [BCL6 Inhibitor],-11.7%
18,Cc1c(F)cc(C(=O)NC2CC2)cc1-c1ccc(C(=O)NCC(C)(C)C)cn1 [Losmapimod],-18.8%
19,CC(C)(N)C(=O)N[C@H](COCc1ccccc1)C(=O)N1CCC2(CC1)CN([S+](C)(=O)[O-])c1ccccc12 [Ibutamoren mesilate],-50.7%
20,CN(N=O)C(=O)N[C@@H]1[C@@H](O)[C@H](O)[C@@H](CO)O[C@@H]1O [Streptozocin],-15.5%
21,CNNCc1ccc(C(=O)NC(C)C)cc1 [Procarbazine hydrochloride],-10.4%
22,C[C@]\12CCC(=O)\C=C1CC[C@H]3[C@@H]4CC[C@](O)(C(=O)CO)[C@@]4(C)C[C@H](O)[C@H]23 [Hydrocortisone],-23%
23,O=C1Nc2ccc(I)cc2/C1=C/c1cc(Br)c(O)c(Br)c1 [GW-5074],-38%
24,Cc1c(C)n(Cc2ccc(-c3ccccc3C(=O)O)cc2)c2ccc(C(=O)N[C@@H](C)c3ccc([N+](=O)[O-])cc3)cc12 [SR-1664],14.2%
25,CN1C[C@@H]2c3ccccc3Oc3ccc(Cl)cc3[C@H]2C1 [Asenapine maleate],-77.1%

row,SMILES,efficacy
1,COc1ccc2c(c[n+](C)c3c4cc5c(cc4ccc23)OCO5)c1OC [Chelerythrine chloride],-83.2%
2,CN1C2CCC1CC(OC(=O)C(CO)c1ccccc1)C2 (stereo not given) [Atropine (sulfate monohydrate)],-6.96%
3,CC1OC(OC/2=C(/OC3=C(C(=CC(=C3)O)O)C2=O)C4=CC=C(O)C=C4)C(O)C(OC(C)=O)C1OC(C)=O (stereo not given) [SL-0101-1],6.12%
4,O=C(O)c1cccc(-c2noc(-c3ccccc3F)n2)c1 [PTC-124],-22.5%
5,C=CC(=O)N1CCC[C@H](n2c(=O)n(-c3ccc(Oc4ccccc4)cc3)c3c(N)ncnc32)C1 [ONO-4059 analog],-67.4%
6,CC(C)NCC(O)c1ccc(O)c(O)c1 (stereo not given) [Isoprenaline hydrochloride],-16.7%
7,CC1=C(F)C=CC(=C1)N2C(=O)\C=C/C3=C2C4=C([NH]C=C4)N=C3 [STK16-IN-1],-45.7%
8,CCn1c(C(=O)N(C2CC2)C2CC2)cc2c3c(ncn3C)c(Nc3cc(C)n(C)n3)nc21,-25.7%
9,FC1=C(C=C(C/C2=N/NC(=O)C3=C2C=CC=C3)C=C1)C(=O)N4CCN(CC4)C(=O)C5CC5 [Olaparib],-38.8%
10,O=C(Nc1cc(Oc2cc(F)c(NC(=O)C3(C(=O)Nc4ccc(F)cc4)CC3)cc2F)ccn1)C1CC1 [Altiratinib],-68.8%
11,CC(C)(O)C(=O)Nc1ccc([N+](=O)[O-])c(C(F)(F)F)c1 [Hydroxyflutamide],-27.7%
12,Cn1c(=O)c2c(ncn2CC(O)CO)n(C)c1=O (stereo not given) [Dyphylline],-13%
13,Nc1nc(OC(c2ccc(-c3cccc(F)c3)cc2)C(F)(F)F)cc(-c2ccc(C[C@H](N)C(=O)O)cc2)n1 (stereo not given in full),-21.2%
14,Cc1ccc(/C=N/NC(=O)c2ccccc2Oc2ccccc2)o1,-6.56%
15,CC(=O)N1CCN(c2ccc(NC(=O)Cc3cnc(-c4ccnc(F)c4)c(C)c3)nc2)CC1 [GNF-6231],-22.2%
16,NC(=O)c1ccc(-c2nc(-c3ccc4c(c3)OCCO4)c(-c3ccccn3)[nH]2)cc1 [D-4476],-84.9%
17,C[C@H](c1ccc(F)cc1CCCC(=O)O)N(c1cc(F)ccc1F)[S+](=O)([O-])c1ccc(Cl)cc1,-30.3%
18,CN1CCCN=C1/C=C/c1cccs1 [PYRANTEL PAMOATE],-47%
19,N[C@@H](CCC(=O)O)C(=O)N[C@@H](Cc1c[nH]c2ccccc12)C(=O)O [Oglufanide],-13.7%
20,N=C1S/C(=C\c2ccc(-c3ccc4c(c3)C(=O)NC4=O)o2)C(=O)N1c1ccc(Br)cc1 [Bioymifi],-15.3%
21,CC(C)C[C@H](CO)Nc1nc(S[C@@H](C)c2ccccc2)nc2nc(N)sc12 [AZD-8797],-86.1%
22,CO[C@H]1CC[C@]2(CC1)CC3=C(C=C(C=C3)C4=CN=CC(=C4)C#CC)[C@@]2/5\N=C(C)/C(=N5)N,-11.3%
23,COC(=O)Nc1nc2cc(C(=O)c3ccccc3)ccc2[nH]1 [Mebendazole],-65.1%
24,COc1ccc(CCC(=O)Nc2nc3ccc(Cl)cc3s2)cc1OC,-14.1%
25,CN(C)c1ccc2nc3ccc(N(C)C)cc3[s+]c2c1.[Cl-] [Methylene blue],-96.6%

row,SMILES,efficacy
1,CC(C)OC(=O)C(C)(C)Oc1ccc(C(=O)c2ccc(Cl)cc2)cc1 [Fenofibrate],-34.6%
2,OCc1ccc(-c2nn(Cc3ccccc3)c3ccccc23)o1 [Lificiguat],-57.1%
3,C[N]1C=C(C2=C1C=CC=C2)\C3=C(\C(=O)NC3=O)C4=C5CC(CN)CC[N]5C6=C4C=CC=C6 (stereo not given) [Ro-31-8425],-33.7%
4,O=c1sn(-c2cccc3ccccc23)c(=O)n1Cc1ccccc1 [Tideglusib],-7.08%
5,CN1[C@@H]2CCC[C@H]1CC(NC(=O)c1nn(C)c3ccccc13)C2 (stereo not given in full) [Granisetron (AB-1001)],-17.2%
6,CO[C@@H]1[C@@H](OC(N)=O)[C@@H](O)[C@H](OC2=CC=C3\C(=C(NC(=O)C4=CC=C([O-])C(=C4)CC=C(C)C)/C(=O)OC3=C2C)O)OC1(C)C [Novobiocin sodium],3.79%
7,O=C(O)CSCC(=O)NC1CCSC1=O (stereo not given) [Erdosteine],9.04%
8,COC1=CC2=C(OC\C(=C2\C3=CC=C(F)C=C3)CN4CCCC4)C=C1 [AX-024],-55.9%
9,COC(=O)[C@@H]1[C@H]2C[C@H]3c4[nH]c5ccccc5c4CCN3C[C@@H]2CC[C@@H]1O [Yohimbine],-8.81%
10,CSCC[C@@H](NC(=O)[C@@H](Cc1ccccc1)NC(=O)CNC(=O)CNC(=O)[C@@H](N)Cc1ccc(O)cc1)C(=O)O [Metenkephalin],-81.4%
11,O=C(O)CC/C=C\CC[C@@H]1[C@@H](N2CCCCC2)[C@@H](O)C[C@@H]1OCc1ccc(-c2ccccc2)cc1 [Vapiprost hydrochloride],-23.2%
12,CC1COC2(CCN(CC2)C/3=N/C(=O)C4=CC(=CC(=C4S3)[N+]([O-])=O)C(F)(F)F)O1 (stereo not given),-19.7%
13,CC(C)(O)c1coc([S+](=O)([O-])NC(=O)Nc2c3c(cc4c2CCC4)CCC3)c1,7.83%
14,Clc1ccc2c(N3CCN(CCCN4CCN(c5ccnc6cc(Cl)ccc56)CC4)CC3)ccnc2c1 [Piperaquine],-15.3%
15,CCCCCCCCCCCC(CC1OC(=O)C1CCCCCC)OC(=O)C(CC(C)C)NC=O (stereo not given) [Orlistat],-6.83%
16,O=[N+]([O-])c1cn2c(n1)OC[C@@H](OCc1ccc(OC(F)(F)F)cc1)C2 [PA-824],-19.8%
17,CC(C)[C@H]1C(=O)N[C@@H](CCCN=C(N)N)C(=O)NCC(=O)N[C@@H](CC(=O)O)C(=O)N[C@H](Cc2ccccc2)C(=O)N1C [Cilengitide],-11%
18,COC(=O)C1=C(C)NC(C)=C(C(=O)OCCN2CCN(C(c3ccccc3)c3ccccc3)CC2)C1c1cccc([N+](=O)[O-])c1.Cl.Cl (stereo not given) [Manidipine],-75%
19,O=C(NCCCNc1nc(Nc2cccc(NC(=O)N3CCCC3)c2)ncc1I)c1cccs1 [BX-795],-76.5%
20,OC(=O)\C1=C\N(C2=CC=C(F)C=C2)C3=C(C=C(F)C(=C3)N4CCNCC4)C1=O [Sarafloxacin hydrochloride],14%
21,CN(C)CCNC(=O)NC[C@H]1CC[C@@H]2[C@H](O1)c1cc(C(F)(F)F)ccc1N[C@H]2c1ccccc1,-63.4%
22,COCCCc1sc(-c2ccccc2)nc1C(=O)Nc1ccccc1-c1nc2cc(CN3CCCC3)cnc2s1 [SRT-3025],7.71%
23,C\C1=C(\C=C(\C#N)C(=O)N1)C2=CC=NC=C2 [Milrinone],-8.82%
24,CCOC(=O)C(C)OC1=CC=CC2=C1\C=C/N(CC(=O)NC3=CC=C4OCCOC4=C3)C2=O (stereo not given),-19.6%
25,COc1cc2ncnc(Nc3ccc(F)c(Cl)c3)c2cc1OCCCN1CCOCC1 [Gefitinib],-15.4%
